Test results published in paper PMC8036666, “Biological and Physico-Chemical Characteristics of Arginine-Rich Peptide Gemini Surfactants with Lysine and Cystine Spacers” (International Journal of Molecular Sciences, 2021).

Assay: in vitro
Settings: human, 25% (v/v) normal human serum
Protocol: Serum stability of peptides B7 and C7 was tested in normal human serum (Sigma-Aldrich, Steinheim, Germany) according to the modified Jenssen and Aspmo protocol. Briefly, compounds were incubated in 25% (v/v) human serum solution in RPMI-1640 (Sigma-Aldrich, Steinheim, Germany) at 37 ± 0.1 °C. The final compound concentration was 50 µg/mL. Time intervals were 0, 1, 2, 3, 4, and 5 h. To precipitate serum proteins, 100 µL of solution was added to 200 µL of 96% ethanol (Pure P.A., POCH, Avantor Performance Materials S.A, Gliwice, Poland) and incubated at 4 °C before centrifugation (4 °C, 18,000× g, 2 min; Sorvall ST 16R Centrifuge, Thermo Scientific, Osterode am Harz, Germany). Subsequently, 200 µL of supernatant was transferred to glass vials (1.5 mL, Anchem, Poland), and the liquid was evaporated under nitrogen at 37 °C (approximately 30 min). The vials were lyophilized for 24 h to remove traces of solvents.
The influence of serum matrix on calibration curves was eliminated by the preparation of a series of vials with residual substances from serum. Briefly, ethanol was added to serum solution to precipitate proteins. Subsequently, the precipitate was centrifuged, and the supernatant was collected and evaporated to dryness as described above. Standards of the analyzed compounds were prepared in demineralized water in concentration ranging from 1 to 15 ppm. Next, 333 µL of solutions were moved to vials containing residual matrix substances (blank, without surfactant). Similarly, samples obtained after serum stability experiments were dissolved in 333 µL of demineralized water and analyzed. Analyses were performed using UPLC-HRMS. The mobile phase contained deionized water (solvent A) and acetonitrile (solvent B; ACN for HPLC-gradient grade; POCH, Avantor, Gliwice, Poland) both supplemented with a 0.1% (v/v) formic acid (Sigma-Aldrich, Steinheim, Germany).
The quantification of lipopeptides was performed using an Agilent 1290 Infinity chromatograph and Agilent 6550 Quadrupole Time-of-flight (Q-TOF) high-resolution mass spectrometer (HRMS). Gradient LC analyses were conducted using a ZORBAX Eclipse Plus C18 column (Rapid Resolution HD, 2.1 × 50 mm, 1.8 µm) and mobile phases: A—water containing 0.3% of acetonitrile and B—acetonitrile, both with 0.1% (v/v) formic acid. […] The mass detector equipped with an ESI source in HRMS mode was set in scanning mode 100–1700 m/z range in positive ionization. Chromatograms for a desired m/z value were extracted, and calibration curves were prepared using Mass Hunter software. All standards and serum samples were subjected to LC-MS analysis, and all analyses were performed in triplicate. Calibration curves were prepared for chromatograms extracted for m/z values corresponding to mono-, di-, tri- and tetra-charged ions. For analysis of peptide C7, a pseudomolecular ion [M+H]^+ (m/z 1227.8017) was selected, while for the other peptide B7, triple charged ion [M+3H]^3+ (m/z 378.9606).

Structure (SMILES) | remaining at 0 h, 50 µg/mL [%] | remaining at 1 h, 50 µg/mL [%] | remaining at 2 h, 50 µg/mL [%] | remaining at 3 h, 50 µg/mL [%] | remaining at 4 h, 50 µg/mL [%] | remaining at 5 h, 50 µg/mL [%]
CCCCCCC(CCCC)C(=O)N[C@@H](CCCNC(=N)N)C(=O)N[C@@H](CCCNC(=N)N)C(=O)NCCCC[C@H](NC(=O)[C@H](CCCNC(=N)N)NC(=O)[C@H](CCCNC(=N)N)NC(=O)C(CCCC)CCCCCC)C(N)=O (stereo partly drawn) [Compound B7] | 100 ± 2.4 | 94.3 ± 1.8 | 87.3 ± 1.7 | 83.1 ± 1.6 | 80.1 ± 1.2 | 63.2 ± 2.9
CCCCCCC(CCCC)C(=O)N[C@@H](CCCNC(=N)N)C(=O)N[C@@H](CCCNC(=N)N)C(=O)N[C@@H](CSSC[C@H](NC(=O)[C@H](CCCNC(=N)N)NC(=O)[C@H](CCCNC(=N)N)NC(=O)C(CCCC)CCCCCC)C(N)=O)C(N)=O (stereo partly drawn) [Compound C7] | 100 ± 1.1 | 92.2 ± 2.1 | 82.5 ± 1.3 | 79.2 ± 1.6 | 72.8 ± 3 | 59.4 ± 1
